Test results from patent publication US20230098637A1, “PROGNOSTIC PATHWAYS FOR HIGH RISK SEPSIS PATIENTS” (InnoSIGN B.V., priority 2020, published 2023).
“Also recorded” adds a separate entry of the source.

Legend:
Assay type in all cases: cell-based
[1] = system: TGFbeta cellular signaling pathway; test: AR inhibitor experiment in LPS-stimulated monocytes (THP1), TGFbeta pathway activity; conditions: THP1 monocytes cultured 24 hours with or without LPS, then with or without DHT
Method: (§1) FIG. 35 Schematic overview of AR inhibitor experiment. Depicts the experimental setup to determine if AR inhibitors can be used to mitigate the effect of LPS on monocytes (THP1 cells). In brief, monocyte cells (THP1) are cultured for 24 hours with or without LPS, after which the medium is changed and both conditions are subsequently cultured with or without DHT. Both LPS and DHT are anticipated to activate the AR cellular signaling pathway. In a parallel experiment, THP1 cells are first cultured for 24 hours with LPS, after which the medium is changed and the cells are cultured with one of ARCC-4, ARD-266, A-458 and bicalutamide.
as §1, with “describes” for “Schematic overview of AR inhibitor experiment. Depicts”, “set-up used.” for “setup to determine if AR inhibitors can be used to mitigate the effect of LPS on monocytes (THP1 cells).”
(§2) All experimental conditions were subjected to cellular signaling pathways analysis.

[2] = system: ER cellular signaling pathway; test: AR inhibitor experiment in LPS-stimulated monocytes (THP1), ER pathway activity; conditions: THP1 monocytes cultured 24 hours with or without LPS, then with or without DHT
Method: as §1
as §1, with “describes” for “Schematic overview of AR inhibitor experiment. Depicts”, “set-up used.” for “setup to determine if AR inhibitors can be used to mitigate the effect of LPS on monocytes (THP1 cells).”
as §2

[3] = system: HH (Hedgehog) cellular signaling pathway; test: AR inhibitor experiment in LPS-stimulated monocytes (THP1), HH pathway activity; conditions: THP1 monocytes cultured 24 hours with or without LPS, then with or without DHT
Method: as §1
as §1, with “describes” for “Schematic overview of AR inhibitor experiment. Depicts”, “set-up used.” for “setup to determine if AR inhibitors can be used to mitigate the effect of LPS on monocytes (THP1 cells).”
as §2

[4] = system: AR cellular signaling pathway; test: AR inhibitor experiment in LPS-stimulated monocytes (THP1), AR pathway activity; conditions: THP1 monocytes cultured 24 hours with or without LPS, then with or without DHT
Method: as §1
as §1, with “describes” for “Schematic overview of AR inhibitor experiment. Depicts”, “set-up used.” for “setup to determine if AR inhibitors can be used to mitigate the effect of LPS on monocytes (THP1 cells).”
as §2

WNT pathway = test: LPS stimulation of THP-1 cells, WNT pathway activity; conditions: LPS from E. coli 10, 50, 100 ng/ml, 24 hours, vs control
Method: (§3) To study the inflammation process we stimulated the monocytic THP-1 cells (ATCC® TIB-202™) using 3 different concentrations of LPS originated from E. coli ([…], 10 ng/ml, 50 ng/ml and 100 ng/ml) into culture medium (DMEM, supplemented with 10% FBS, 1% glutamax and 1% pen strep at 37° C. 5% CO2.) of THP-1 for 24 hours. After stimulation cells were harvested and RNA was extracted using the RNeasy mini kit (Qiagen, 74104). qPCR was performed using the Philips Research OncoSignal platform. […] The activation of the AR and TGFBeta pathways was also seen in sepsis samples confirms the role of these pathways in inflammation.

FOXO pathway = test: LPS stimulation of THP-1 cells, FOXO pathway activity; conditions: LPS from E. coli 10, 50, 100 ng/ml, 24 hours, vs control
Method: as §3

AR pathway = test: LPS stimulation of THP-1 cells, AR pathway activity (qPCR OncoSignal); conditions: LPS from E. coli 10, 50, 100 ng/ml, 24 hours, vs control
Method: as §3

TGFBeta pathway = test: LPS stimulation of THP-1 cells, TGFBeta pathway activity; conditions: LPS from E. coli 10, 50, 100 ng/ml, 24 hours, vs control
Method: as §3

C[C@]12CCC(=O)C[C@@H]1CC[C@@H]1[C@@H]2CC[C@]2(C)[C@@H](O)CC[C@@H]12 [DHT]
TGFbeta cellular signaling pathway activity [1]: did not increase
ER cellular signaling pathway activity [2]: not substantially affected
HH cellular signaling pathway activity [3]: not substantially affected
AR cellular signaling pathway activity [4]: increase

lipopolysaccharide [LPS]
WNT pathway activity (WNT pathway): increased
TGFbeta cellular signaling pathway activity [1]: increased
ER cellular signaling pathway activity [2]: not substantially affected
FOXO pathway activity (FOXO pathway): increased
HH cellular signaling pathway activity [3]: not substantially affected
AR pathway activity (AR pathway): increased
TGFBeta pathway activity (TGFBeta pathway): increased
AR cellular signaling pathway activity [4]: able to stimulate; also recorded: increase
